Values after ≈ are worked out from the molar mass of the structure shown.
How the values were obtained:
Test in all cases: Broth microdilution MIC in iron-depleted CAMHB (IDM)
Type in all cases: cell-based
[1] = test system: A. baumannii ATCC 17978; details: Acinetobacter baumannii, ATCC17978, read-out: Minimum Inhibitory Concentration, ATCC 17978
Summary of the method: (§1)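 Iron-limited medium: CAMHB chelated with Chelex 100, cations restored, pH 7.3. CLSI-based microdilution, 2-8×10^5 CFU/mL inoculum, 37° C for 16-20 h (P. aeruginosa) or 20-24 h (A. baumannii). Endpoint is no visible growth.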

[2] = test system: A. baumannii ATCC 19606; details: Acinetobacter baumannii, ATCC19606, read-out: Minimum Inhibitory Concentration, ATCC 19606
Summary of the method: as §1

[3] = test system: A. baumannii CDC-0083 producing NDM-1, PER-7, OXA-23, and OXA-69; details: Acinetobacter baumannii, read-out: Minimum Inhibitory Concentration, CDC-0083
Summary of the method: as §1

[4] = test system: P. aeruginosa ATCC 27853; details: Pseudomonas aeruginosa, ATCC27853, read-out: Minimum Inhibitory Concentration, P. aeruginosa ATCC 27853
Summary of the method: as §1

[5] = test system: P. aeruginosa ATCC 35151; details: Pseudomonas aeruginosa, ATCC35151; iron-depleted MHB (IDM); hyper-permeable strain; read-out: Minimum Inhibitory Concentration, P. aeruginosa ATCC 35151
Summary of the method: as §1

[6] = test system: P. aeruginosa CDC-0054 producing VIM-4, OXA-50, and PAO; details: Pseudomonas aeruginosa, read-out: Minimum Inhibitory Concentration, P. aeruginosa CDC-0054
Summary of the method: as §1

[7] = test system: P. aeruginosa CDC-0090 producing KPC-5, OXA-50, and PAO; details: Pseudomonas aeruginosa, read-out: Minimum Inhibitory Concentration, P. aeruginosa CDC-0090
Summary of the method: as §1

[8] = test system: P. aeruginosa CDC-0095 producing OXA-50, and PAO; details: Pseudomonas aeruginosa, read-out: Minimum Inhibitory Concentration, P. aeruginosa CDC-0095
Summary of the method: as §1

[9] = test system: A. baumannii CDC-0045 producing TEM-1D, OXA-23, and OXA-69; details: Acinetobacter baumannii, read-out: Minimum Inhibitory Concentration, CDC-0045

Row | SMILES | MIC [1] [µg/mL] | MIC [2] [µg/mL] | MIC [3] [µg/mL] | MIC [4] [µg/mL] | MIC [5] [µg/mL] | MIC [6] [µg/mL] | MIC [7] [µg/mL] | MIC [8] [µg/mL] | MIC [9] [µg/mL]
1 | NS(=O)(=O)c1cc(O)cc(C(NC(=O)N2CCN(Cc3c(F)cc(O)c(O)c3Cl)C(=O)C2=O)C(=O)N[C@H]2Cc3cccc(C(=O)O)c3OB2O)c1 (stereo partly drawn) [Example 132, (3R)-3-(2-(4-(2-chloro-6-fluoro-3,4-dihydroxybenzyl)-2,3-dioxopiperazine-1-carboxamido)-2-(3-hydroxy-5-sulfamoylphenyl)acetamido)-2-hydroxy-3,4-dihydro-2H-benzo[e][1,2]oxaborinine-8-carboxylic acid] | > 128 | 8 to 16 (≈ 10.7 to 21.3 µM) | > 128 | 8 to 16 (≈ 10.7 to 21.3 µM) | 0.5 to 1 (≈ 0.667 to 1.33 µM) | > 128 | 2 to 4 (≈ 2.67 to 5.33 µM) | > 128 | > 128
2 | NC1(CN2CCN(C(=O)N[C@@H](C(=O)N[C@H]3Cc4ccc(F)c(C(=O)O)c4OB3O)c3cc(F)c(O)c(O)c3Cl)C(=O)C2=O)CC1 (single isomer, unassigned) [Example 133] | 0.25 (≈ 0.384 µM) | 0.25 (≈ 0.384 µM) | > 128 | 0.5 to 1 (≈ 0.767 to 1.53 µM) | 0.25 (≈ 0.384 µM) | 0.5 to 1 (≈ 0.767 to 1.53 µM) | 0.5 to 1 (≈ 0.767 to 1.53 µM) | 2 to 4 (≈ 3.07 to 6.14 µM) | 8 to 16 (≈ 12.3 to 24.5 µM)
3 | NCCCN1CCN(C(=O)N[C@@H](C(=O)N[C@H]2Cc3ccc(F)c(C(=O)O)c3OB2O)c2cc(F)c(O)c(O)c2Cl)C(=O)C1=O (single isomer, unassigned) [Example 180] | 0.5 to 1 (≈ 0.782 to 1.56 µM) | 0.5 to 1 (≈ 0.782 to 1.56 µM) | > 128 | 0.5 to 1 (≈ 0.782 to 1.56 µM) | 0.25 (≈ 0.391 µM) | 0.5 to 1 (≈ 0.782 to 1.56 µM) | 2 to 4 (≈ 3.13 to 6.25 µM) | 2 to 4 (≈ 3.13 to 6.25 µM) | 2 to 4 (≈ 3.13 to 6.25 µM)
4 | CCN1CCN(C(=O)N[C@H](C(=O)N[C@H]2Cc3ccc(F)c(C(=O)O)c3OB2O)c2c(F)cc(O)c(O)c2Cl)C(=O)C1=O (single isomer, unassigned) [Example 125] | > 128 | > 128 | > 128 | > 128 | > 128 | > 128 | > 128 | > 128 | > 128
5 | NS(=O)(=O)Nc1cccc(C(NC(=O)N2CCN(Cc3c(F)cc(O)c(O)c3Cl)C(=O)C2=O)C(=O)N[C@H]2Cc3cccc(C(=O)O)c3OB2O)c1 (stereo partly drawn) [Example 131, (3R)-3-(2-(4-(2-chloro-6-fluoro-3,4-dihydroxybenzyl)-2,3-dioxopiperazine-1-carboxamido)-2-(3-(sulfamoylamino)phenyl)acetamido)-2-hydroxy-3,4-dihydro-2H-benzo[e][1,2]oxaborinine-8-carboxylic acid] | 0.5 to 1 (≈ 0.668 to 1.34 µM) | > 128 | > 128 | 8 to 16 (≈ 10.7 to 21.4 µM) | 0.25 (≈ 0.334 µM) | > 128 | 2 to 4 (≈ 2.67 to 5.34 µM) | 8 to 16 (≈ 10.7 to 21.4 µM) | > 128
6 | C[C@@H](O)[C@@H](NC(=O)N1CCN(CCNC(=O)c2c(F)cc(O)c(O)c2Cl)C(=O)C1=O)C(=O)N[C@H]1Cc2ccc(F)c(C(=O)O)c2OB1O [Example 102, (R)-3-((2R,3R)-2-(4-(2-(2-chloro-6-fluoro-3,4-dihydroxybenzamido)ethyl)-2,3-dioxopiperazine-1-carboxamido)-3-hydroxybutanamido)-7-fluoro-2-hydroxy-3,4-dihydro-2H-benzo[e][1,2]oxaborinine-8-carboxylic acid] | 2 to 4 (≈ 2.87 to 5.73 µM) | 2 to 4 (≈ 2.87 to 5.73 µM) | 32 to 64 (≈ 45.9 to 91.7 µM) | 2 to 4 (≈ 2.87 to 5.73 µM) | 0.5 to 1 (≈ 0.717 to 1.43 µM) | 32 to 64 (≈ 45.9 to 91.7 µM) | 2 to 4 (≈ 2.87 to 5.73 µM) | 2 to 4 (≈ 2.87 to 5.73 µM) | 32 to 64 (≈ 45.9 to 91.7 µM)
7 | NC1(CN2CCN(C(=O)N[C@@H](C(=O)N[C@H]3Cc4ccc(F)c(C(=O)O)c4OB3O)c3c(F)cc(O)c(O)c3Cl)C(=O)C2=O)CC1 (single isomer, unassigned) [Example 134] | 0.5 to 1 (≈ 0.767 to 1.53 µM) | 0.5 to 1 (≈ 0.767 to 1.53 µM) | > 128 | 2 to 4 (≈ 3.07 to 6.14 µM) | 0.25 (≈ 0.384 µM) | 32 to 64 (≈ 49.1 to 98.2 µM) | 2 to 4 (≈ 3.07 to 6.14 µM) | 32 to 64 (≈ 49.1 to 98.2 µM) | 32 to 64 (≈ 49.1 to 98.2 µM)
8 | NCCN1CCN(C(=O)N[C@@H](C(=O)N[C@H]2Cc3ccc(F)c(C(=O)O)c3OB2O)c2cc(F)c(O)c(O)c2Cl)C(=O)C1=O (single isomer, unassigned) [Example 179] | 0.5 to 1 (≈ 0.799 to 1.6 µM) | 0.5 to 1 (≈ 0.799 to 1.6 µM) | > 128 | 0.5 to 1 (≈ 0.799 to 1.6 µM) | 0.25 (≈ 0.4 µM) | 0.5 to 1 (≈ 0.799 to 1.6 µM) | 2 to 4 (≈ 3.2 to 6.39 µM) | 2 to 4 (≈ 3.2 to 6.39 µM) | 8 to 16 (≈ 12.8 to 25.6 µM)

Reference: patent US20230114728A1 (Venatorx Pharmaceuticals, Inc., priority 2019, published 2023)
